This note sets out measurements from article PMC11540889, “In Vitro Cytotoxicity of Fluorinated Quaternary Ammonium Salts in Colorectal Cancer Cells and In Silico Pharmacology” (Advances in Pharmacological and Pharmaceutical Sciences, 2024).

Data set [1] concerns SW620 (Dukes' Type C, Grade IV invasive colorectal adenocarcinoma). Put plainly: MTT cytotoxicity, SW620 cells. To be noted: for CC50: Homo sapiens, 48 h; for Index of selectivity MCRT / SW620: IS = CC50 MCRT ÷ CC50 SW620; for Index of selectivity PBMC / SW620: IS = CC50 PBMC ÷ CC50 SW620. The protocol: (§1) The compounds were solubilized in dimethyl sulfoxide (DMSO, Fischer Chemical, NJ, USA) at 50,000 μg/mL and stored at −20°C until use. From the stock solution, six serial 1:2 double dilutions of each compound were prepared to start with concentrations of 100, 50, 25, 12.5, 6.25, and 3.125 μg/mL, respectively. 5-FU, one of the conventional drugs to treat CRC [34], was used as an antitumor compound control at concentrations ranging between 800 and 0.625 μM.
(§2) SW948 (Dukes' Type C, Grade III, premetastatic colorectal adenocarcinoma—CCL-237), SW48 (Dukes' Type C, Grade IV, noninvasive colorectal adenocarcinoma—CCL231), and SW620 (Dukes' Type C, Grade IV invasive colorectal adenocarcinoma—CCL227) (American Type Culture Collection Manassas, VA, USA) were maintained in standard conditions at 37°C, without a CO2 atmosphere. PBMCs and MCRT were used as nontumoral control cells. PBMCs were obtained by healthy donors, separated using Histopaque-1077 (Sigma-Aldrich) and cultured in RPMI-1640 medium (Sigma-Aldrich) supplemented with 10% SFB and 1% penicillin/streptomycin [46]. In turn, MCRT were obtained from healthy BALB/c mice; for this, mice were euthanized with CO2 after previous sedation, the colorectal tissue removed, cleaned up, and cut into 2 × 2 mm pieces, suspended in supplemented DMEM, and used immediately after collection. […] Moreover, the inclusion of PBMC also served to assess the systemic toxicity of FQAS.
(§3) The cytotoxic activity of synthesized FQASs and QASs was studied by measuring cell viability/mortality, determined with the MTT (3-(4,5-dimethylthiazol-2-yl)-2,5-diphenyl tetrazole bromide) method (VWR Chemicals and Reagents Avantor), upon exposure of each cell line to six serial dilutions of the different compounds independently. Unexposed cells were included as viability controls, and cells exposed to 5-FU were included as cytotoxicity controls. Briefly, cells were adjusted to 200,000 cells/mL in the corresponding supplemented culture medium, and 100 μL (20,000 cells/well) were dispensed into each 96-well cell culture plate (Nunc, Thermo Fisher Scientific). Twelve hours after seeding the monolayer, 100 μL dilution of each compound was added to each well; the plates containing CRC were incubated at 37°C in the absence of CO2, while plates with PBMCs and MCRT were incubated at 37°C and 5% CO2 atmosphere. For MCRT, each piece was placed into each well of a 96-well plate and exposed to each dilution of the FQASs and QASs. After 48 h of incubation, 30 μL/well of MTT (5 mg/mL) was added, and plates were left at 37°C for 3 h, protected from light. After this time, 100 μL/well of DMSO was added to solubilize the formazan crystals formed. Plates were read at 570 nm on a Varioskan plate reader (Thermo Fisher), and nonspecific absorbance was corrected by subtracting the optical densities (OD) of the blank solutions corresponding to the supplemented culture media (RPMI 1640, DMEM, or L-15 media) and 0.5% DMSO. Each concentration of the FQASs, QASs, and controls was evaluated in duplicate in three independent experiments.
(§4) The percentages of viability (equation (1)) and mortality (equation (2)) were calculated with the net OD:(1) % viability=OD treated cell÷nontreated cells×100, (2) % mortality=100−% viability.
(§5) The %mortality data for each compound concentration was recorded, and the median cytotoxic concentration (CC50), corresponding to the concentration at which 50% of cell death occurs, was calculated using GraphPad Prism 8 software (GraphPad, Software, Inc., La Jolla, CA, USA). […] Lastly, the index of selectivity (IS) was calculated by dividing the CC50 value obtained for control cells (MCRT and PBMCs) by the CC50 value obtained for each CRC cell phenotype using the formula: IS = CC50 (MCRT or PBMC) ÷ CC50 (SW948, SW48 or SW620).

In data set [2] the test system is CRC cell lines SW48, SW620, and SW948. Put plainly: MTT cytotoxicity across CRC cell lines (pooled statements, selectivity between lines). Type of data set: cell-based. The settings on record: for Index of selectivity SW48 vs. SW620: IS = CC50 SW48 ÷ CC50 SW620; for Index of selectivity SW948 vs. SW48: IS = CC50 SW948 ÷ CC50 SW48; for Index of selectivity SW948 vs. SW620: IS = CC50 SW948 ÷ CC50 SW620. As to the method: as §1, §2, §3, §4
The %mortality data for each compound concentration was recorded, and the median cytotoxic concentration (CC50), corresponding to the concentration at which 50% of cell death occurs, was calculated using GraphPad Prism 8 software (GraphPad, Software, Inc., La Jolla, CA, USA). […]

Data set [3] deals with SW948 (Dukes' Type C, Grade III, premetastatic colorectal adenocarcinoma). Kind of data set: MTT cytotoxicity, SW948 cells. The settings on record: for CC50: Homo sapiens, SW948, 48 h, SW948 cells, MTT, 48 h, mean ± SD; for Index of selectivity MCRT / SW948: IS = CC50 MCRT ÷ CC50 SW948; for Index of selectivity PBMC / SW948: IS = CC50 PBMC ÷ CC50 SW948. As to the method: as §1, §2, §3, §4, §5

The subject of data set [4] is SW48 (Dukes' Type C, Grade IV, noninvasive colorectal adenocarcinoma). Kind of data set: MTT cytotoxicity, SW48 cells. The settings on record: for CC50: Homo sapiens, SW48, 48 h, SW48 cells, MTT, 48 h, mean ± SD; for Index of selectivity MCRT / SW48: IS = CC50 MCRT ÷ CC50 SW48; for Index of selectivity PBMC / SW48: IS = CC50 PBMC ÷ CC50 SW48. The protocol: as §1, §2, §3, §4, §5

The subject of data set [5] is healthy murine colorectal tissue (MCRT). Put plainly: Ex vivo MTT cytotoxicity, healthy murine colorectal tissue. The class given is cell-based, BALB/c mice. The protocol:
as §1, §2, §3, §4, §5

Experiment in data set [6]: as above
To be noted: BALB/c, mouse, healthy murine colorectal tissue (MCRT) pieces, ex vivo, nontumoral control, MTT, 48 h, mean ± SD. Type of data set: cell-based, BALB/c mice. The protocol:
as §1, §2, §3, §4, §5

Data set [7] has as its system peripheral blood mononuclear cells (PBMC). Kind of data set: MTT cytotoxicity, peripheral blood mononuclear cells. Type of data set: cell-based. To be noted: PBMCs. As to the method:
as §1, §2, §3, §4, §5

Experiment in data set [8]: as above
Type of data set: cell-based. The settings on record: human, peripheral blood mononuclear cells (PBMC); PBMC, nontumoral control, MTT, 48 h, mean ± SD. As to the method:
as §1, §2, §3, §4, §5

With `C[N+](C)(CI)CCCCC=C(c1ccccc1)c1ccccc1` [Compound 16], in data set [1], the CC50 (as a rule, the concentration giving 50% cytotoxicity) is 72.9 ± 4.2 µM; the “Index of selectivity MCRT / SW620” value came out at 1.9; the “Index of selectivity PBMC / SW620” value was determined as 0.5. Further, in data set [2], the “Index of selectivity SW48 vs. SW620” value was found to be 0.9, the “Index of selectivity SW948 vs. SW48” value came out at 1.1 and the “Index of selectivity SW948 vs. SW620” value is 1.0. In addition, in data set [3], the CC50 turned out to be 71 ± 12.4 µM, the “Index of selectivity MCRT / SW948” value came to 1.9 and the “Index of selectivity PBMC / SW948” value turned out to be 0.6. In addition, in data set [4], half-maximal cytotoxicity (CC50) was put at 65.2 ± 3.7 µM, the “Index of selectivity MCRT / SW48” value stood at 2.1 and the “Index of selectivity PBMC / SW48” value came out at 0.6. Also, the cytotoxicity in words entry in data set [5] is listed as “noncytotoxic”. In data set [6], this compound displayed a CC50 at 48 h of 135 ± 11.8 µM. Also, the cytotoxicity in words entry in data set [7] is reported as “highly cytotoxic”. The CC50 at 48 h in data set [8] stood at 38.8 ± 5.6 µM.
Turning to `C[N+](C)(CI)CCCC=C(c1ccccc1)c1ccccc1` [Compound 15], in data set [1], the CC50 was found to be 158 ± 2.3 µM, the “Index of selectivity MCRT / SW620” value is 1.6 and the “Index of selectivity PBMC / SW620” value is reported as 0.2. Besides, in data set [2], the “Index of selectivity SW48 vs. SW620” value is 0.8, the “Index of selectivity SW948 vs. SW48” value is recorded as 0.8 and the “Index of selectivity SW948 vs. SW620” value is 0.6. For the same compound, in data set [3], the CC50 came out at 98.2 ± 4.3 µM, the “Index of selectivity MCRT / SW948” value is on record as 2.6 and the “Index of selectivity PBMC / SW948” value turned out to be 0.3. In data set [4], it took 124 ± 2.3 µM to reach half-maximal cytotoxicity (CC50), the “Index of selectivity MCRT / SW48” value was 2.1 and the “Index of selectivity PBMC / SW48” value is 0.2. The cytotoxicity in words entry in data set [5] is “moderate cytotoxicity”. The midpoint of cytotoxicity in data set [6], the CC50 at 48 h, lay at 256 ± 14 µM. Moreover, the cytotoxicity in words result in data set [7] is “highly cytotoxic”. Further, half-maximal cytotoxicity in data set [8] (CC50 at 48 h) was put at 29.3 ± 1.4 µM.
